The source of these data is US20070082865A1, “Compositions and methods for treatment of airway hypersecretion” (Washington University, priority 2005, published 2007).

Assay [1] has as its system airway epithelium (ciliated, Clara and goblet cells). Briefly: Quantitative morphometry of airway epithelial cell types (β-tubulin, CCSP, MUC5AC immunostaining) after SeV inoculation. It is filed as in vivo, C57BL/6J mice. An excerpt: Values represent mean+SEM, and a significant difference from SeV-UV control is indicated by (*). Methodology is further described in Example 2.
FIG. 24 is a bar graph showing quantitative analysis of β-tubulin (ciliated cells), CCSP (Clara cells), and MUC5AC (goblet cells) immunostaining in airways of mice infected with SeV and treated with slL-13 receptor antagonist (slL-13Ra2-Fc) or control IgG from on days 12, 14, 17, and 20 after inoculation. Bars=20 μm. A significant difference from corresponding IgG treatment is indicated by (*). Methodology is further described in Example 4.
(§1) C57BL/6J and Balb/cJ mice were obtained from The Jackson Laboratory (Bar Harbor, Me.) and were maintained and monitored under pathogen-free conditions for study at 7 wk of age as described previously (Walter et al. (2001); Walter et al. (2002); Tyner et al. (2006) J. Clin. Invest. 116:309-321). SeV (Fushimi Strain 52) was grown in embryonated hen eggs and harvested to provide a viral stock solution such that 5000 EID50 (50% egg infectious dose) was equivalent to 2×10^5 PFU (plaque-forming units). This inoculum or an equivalent amount of UV-inactivated SeV was delivered intranasally in 30 μl PBS under ketamine/xylazine anesthesia. Under these conditions, viral tissue levels are maximal at days 3-5 after infection and viral clearance is complete by day 12 (Walter et al. (2001); Walter et al. (2002); Tyner et al. (2006) J. Clin. Invest. 116:309-321). […] For IL-13 blockade, mice were given subcutaneous injections of soluble murine IL-13Rα2 fused to Fc (slL Example 2: EGFR inhibition decreases aspects of epithelial remodeling 13Rα2-Fc; obtained from Deborah Donaldson, Wyeth Ayerst; 200 μg/mouse in PBS) or control Fc on days 12, 14, 17, and 20 post-infection (Donaldson (1998) J. Immunol. 161, 2317).
Mouse lung was fixed by intraracheal instillation of 4% paraformaldehyde at 25-cm H2O pressure. After overnight fixation at 4° C., tissue was embedded in paraffin, and cut into 3-μm thick sections for hematoxylin/eosin or immunostaining.
For immunostaining, tissue sections were deparaffinized, rehydrated in graded alcohol and encircled with a hydrophobic film (ImmEdge PEN, Vector laboratories, Burlingame, Calif.). […] EGFR was detected using rabbit-antihuman EGFR antibody SC-03 from Santa Cruz Biotechnology (Santa Cruz, Calif.) directed against amino acid residues 1005-1016 that are identical to corresponding sequence in murine EGFR. Phosphorylated EGFR (p-EGFR) was detected using rabbit anti-phospho-EGFR (Tyr845) antibody #2231 from Cell Signaling Technology Inc. (Beverly, Mass.) directed against phosphorylated Tyr^845. […]

Assay [2] concerns EGFR signaling (Akt activation). Briefly: Western blot of lung lysates from SeV-inoculated mice treated with EKB-569. It is filed as in vivo, C57BL/6J mice. The procedure: Blotting was with the indicated antibodies. Methodology is further described in Examples 1 and 2.
as §1

The test system of assay [3] is EGFR-dependent signals (p-EGFR, p-Akt, p-ERK1/2). Briefly: Western blot of EGF-stimulated mTEC cultures with or without inhibitor. Type of assay: cell-based, mouse. The note with it: basic medium then EGF stimulation, inhibitor at maximal effective concentration.
Assay [4] relates to ciliated epithelial cells in mouse tracheal epithelial cell (mTEC) cultures. Briefly: Ciliated cell survival in mTEC cultures (β-tubulin staining cells as % of total Hoechst-staining cells). Type of assay: cell-based. The note with it: treatment for 7 days.
Assay [5] deals with mouse tracheal epithelial cell (mTEC) cultures. Briefly: Apoptosis in mTEC cultures (active caspase 3, TUNEL). It is filed as cell-based. As to conditions: mTEC with EGFR signaling blockade plus z-VAD-fmk (100 μM). The procedure: Bar=20 μm. Methodology is further described in Example 3.
FIGS. 13A and 13B are bar graphs showing quantitative analysis of FIG. 12 for activate caspase-3 staining cells (expressed as % of total Hoechst staining cells) using treatment conditions from FIG. 12 as well as PD15305 plus zVAD-fmk (100 μM). Values represent mean+SEM, and a significant difference from vehicle alone is indicated by (*). Methodology is further described in Example 3.
AIRWAY EPITHELIAL CELL CULTURE AND TREATMENT.
IMMUNOCYTOCHEMISTRY. Cultured cells were washed twice with PBS at 4° C., fixed in 4% paraformaldehyde for 10 min. at 25° C., washed with PBS, and permeabilized with ethanol:acetic acid (2:1, vol/vol) for 5 min at −20° C. for TUNEL reaction or with 0.2% Triton-X for 5 min at 25° C. for immunostaining. Permeabilized cells were then washed with PBS and subjected to the TUNEL reaction (Intergen, Purchase, N.Y.) or blocked with 2% fish gel 1 h at 25° C. and incubated with rabbit anti-active caspase 3 (BD Biosciences, San Diego, Calif.), rabbit anti-EGFR (Santa Cruz Biotechnology, Santa Cruz, Calif.), rabbit anti-p-EGFR (Cell Signaling Technology, Inc., Beverly, Mass.), mouse anti-β-tubulin-IV or rabbit anti-β-tubulin (Sigma, St. Louis, Mo.) antibodies overnight at 4° C. Primary antibody binding was detected with goat anti-mouse or donkey anti-rabbit FITC or CY3 secondary antibody. […]

Setting [6] is: SeV, EGFR inhibitor daily post-infection days 10-21, read at day 21.

Regarding `CCOc1cc2ncc(C#N)c(Nc3ccc(F)c(Cl)c3)c2cc1NC(=O)/C=C/CN(C)C` [EKB-569], in assay [1] (setting [6]), the Clara cell decreases result is reported as “complete blockade”, the ciliated cell increases result is listed as “complete blockade” and the goblet cell metaplasia entry was “partial but significant inhibition”. The “total number of airway epithelial cells (cytokeratin-staining cells)” value in assay [1] (post-inoculation day 21, vehicle 133±3) is listed as 137±5 per mm basement membrane. For the same compound, the “Akt activation in whole mouse lung” value in assay [2] (20 mg/kg by gavage daily, post-infection days 10-21, day 21 post-infection) is “full inhibition”. Moreover, in assay [2] (oral, each day from post-inoculation day 10 through day 21), the “EGFR signaling in vivo” value is listed as “blocked EGFR signaling”.

Take `COc1cccc(-c2cc(=O)c3ccccc3o2)c1N` [PD98059]: in assay [3], the “phosphorylation of ERK1/2” value is recorded as “blocked”. Further, in assay [4], the “loss of ciliated epithelial cells” value is on record as “only treatment with LY294002 caused a similar loss”.

Turning to `COc1cc2ncnc(Nc3cccc(Br)c3)c2cc1OC` [PD153035], in assay [3], the “downstream EGFR signals” value was “blocked all downstream signals”. The “loss of ciliated epithelial cells” value in assay [4] is on record as “dose-dependent loss of ciliated cells”.

“z-Val-Ala-Asp fluoromethylketone [z-VAD-fmk]”: in assay [5], the “TUNEL-positive cells undergoing apoptosis” value is given as “blocked”.
